Laboratory results taken from patent US4517180A, “Peptides, process for preparing the same and psychodepressant compositions containing the same” (Amano Pharmaceutical Co., Ltd, priority 1982, dated 1985).
“Also recorded” adds a separate entry of the source. Where a SMILES comes first, the peptide text is derived from it.

What was measured:
[1] = test system: male Wister rats; assay: Effect on yawning behavior induced by apomorphine; format: in vivo
Description: Effect on yawning behavior
Male Wister rats (weighing 200 to 300 g) were used, with 10 rats in each group. The rat was placed into a plastics cage (17×24×12 cm) with a floor mat and was then habituated for 30 minutes. Peptide A, peptide B, CCK-8 or the above-mentioned diluent serving as a control was subcutaneously given to the animal. Thirty minutes thereafter, 0.03 mg/kg of apomorphine was subcutaneously given to the animal. The number of yawns induced by apomorphine was counted during a period of 30 minutes following administration of apomorphine. The test was conducted in a soundproof compartment for each animal. Wilcoxon rank-sum test was resorted to for statistical treatment.

[2] = test system: test animals; assay: Induction of catalepsy in test animals; format: in vivo
[3] = Induction of yawning behavior; details: in vivo
[4] = test system: Male ddy mice; assay: Effect on climbing behavior induced by apomorphine (Pharmacological Test 2); format: in vivo; design: key to Average: Mean ± S.E. (total of 7 scores), climbing behavior: sum of 7 scores; 0 = all four legs on floor, 2 = ≥3 legs on rods; details: for Average: Mean ± S.E. (total of 7 scores), climbing behavior: 30 min before apomorphine 0.75 mg/kg s.c., control 9.8 ± 0.7
Description: (§1) Effect on climbing behavior induced by apomorphine
Male ddy mice (weighing 20 to 30 g) were used, with 10 mice in each group. Each mouse was placed into a cylindrical cage, 12 cm in diameter and 14 cm in height, made up of vertical rods of 2 mm in diameter spaced apart at a distance of 10 mm in a circular arrangement. The mouse was allowed to stand therein for 2 hours. Peptide A, peptide B, CCK-8 or, as a control, the above-mentioned diluent was subcutaneously given to the animal, and 30 minutes later, 0.75 mg/kg of apomorphine was subcutaneously given. […] The test was carried out in soundproof compartments.
(§2) 0: All the four legs are on the floor.
(§3) 2: At least three legs are on rods.
Student's t-test was resorted to for statistical treatment.

[5] = test system: male Wister rats; assay: Effect on metabolism of amine in the brain; format: in vivo
Description: Effect on metabolism of amine in the brain
Unfasted male Wister rats (weighing 180 to 220 g) were used. Peptide A or peptide B was subcutaneously given to the animal at a dose of 1 mg/kg, the head was irradiated with microwave 1 hour thereafter, and amine metabolite was extracted from the brain. First, removed tissues were homogenized with 1M formic acid and centrifuged at 20,000×g for 20 minutes, and the supernatant (1 ml) was shaken with 5 ml of ethyl acetate. The 3,4-dihydroxyphenylacetic acid (DOPAC), homovanillic acid (HVA) and 5-hydroxyindoleacetic acid (5-HIAA) in the ethyl acetate layer were analyzed by high-performance liquid chromatography under the following conditions. Chemcosorb, 5-ODS, 20 cm×4.6 mm I.D. was used for a separating column, and a mobile phase (0.1M KH2 PO4 (pH 5.0)-5 mM EDTA-2Na-5% acetonitrile) was passed through the colunn at a flow rate of 1 ml/min. The electrochemical detector was set to an oxidation potential of +0.8 V.

[6] = test system: male Wister rats; assay: Effect on the fixed ratio (FR20) responding in rats; format: in vivo; details: s.c., 15 min before 20 min session, dose giving count 50 with control as 100
Description: Effect on the fixed ratio responding in rats
The test was conducted according to the method described in Ahlenius S. and Engel J., Eur. J. Pharm., Vol. 15, 187-192 (1971).
Male Wister rats (weighing 240 to 320 g) were placed into Skinner box (product of Bil-Medika Co., Ltd., Japan, adapted to give a feed when a lever within the box is pressed) and made to learn how to take the food. In this test, one feed was given to the rats when the lever was pressed 20 times, i.e., fixed ratio (FR) 20. The rats showing stable FR20 response were divided into groups each including four rats.
Physiological saline (containing 1 mM of sodium hydrogencarbonate) containing a specified amount of a test compound was subcutaneously given to the rats of one group in a volume of 0.1 ml/100 g. (Physiological saline containing the above-mentioned amount of sodium hydrogencarbonate only was given to the control group). Fifteen minutes after the administration, the test animals were placed in the Skinner box, and the number of times the animals took the feed for 20 minutes was counted. The dose at which the count gained by the group of animals was 50, namely, ED50 value, was determined, with the count gained by the control group calculated as 100. The same procedure as above was repeated with use of the other test compounds.

[7] = test system: Male ICR mice; assay: Inhibitory effect on hyperlocomotion induced by administration of methylphenidate; format: in vivo; details: for ED50, inhibition of methylphenidate-induced hyperlocomotion: s.c. with methylphenidate 10 mg/kg s.c., measured 1 hour after, 50 with control as 100; for Inhibitory effect on methylphenidate-induced hyperlocomotion (in words): s.c.
Description: Inhibitory effect on hyperlocomotion induced by administration of methylphenidate
Male ICR mice (weighing 24 to 30 g) were divided into groups, each including 10 mice. To one group of mice were subcutaneously given 10 mg/kg of methylphenidate and 0.1 ml/10 g of a saline solution of a specified amount of a test compound and 1 mM of sodium hydrogencarbonate. One hour after the administration, the test animals were checked for hyperlocomotion, which was measured with use of a device for measuring locomotion of small animals (wherein the motion of an animal shifts the center of graavity of the device to actuate a microswitch for the measurement of the amount of motion, see Folia Pharmacologica Japonica, 74, 629-639 (1978). For a control group, the same procedure as above was repeated except that the saline solution given was free from any test compound. The concentration of the test compound at which the result achieved by the group of animals was 50, namely, ED50 value, was determined, with the measurement obtained by the control group calculated as 100. The other compounds were tested in the same manner as above.

[8] = test system: Male ddy mice; assay: Effect on climbing behavior induced by apomorphine (Pharmacological Test 7); format: in vivo; design: key: sum of 7 scores; each 0 = four legs on floor, 2 = ≥3 legs on rods; details: control 9.8 ± 0.7
Description: as §1
Male ddy mice (weighing 20 to 30 g) were used, with 10 mice in each group. Each mouse was placed into a cylindrical cage, 12 cm in diameter and 14 cm in height, made up of vertical rods of 2 mm in diameter spaced apart at a distance of 10 mm in a circular arrangement. The mouse was allowed to stand therein for 2 hours. Physiological saline containing a specified amount of a test compound (and 1 mM of sodium hydrogencarbonate) was subcutaneously given to one group of mice in a volume of 1 ml/10 g. (The same dose of saline only was given to a control group). […] The test was carried out in soundproof compartments.
as §2, §3
The other compounds were tested in the same manner as above. The test was carried out in soundproof compartments. Student's t-test was resorted to for statistical treatment.

SMILES	Number of yawns (average) ([1]; 1 mg/kg s.c., 30 min before apomorphine 0.03 mg/kg s.c., counted 30 min, control 4.5)	Effect on yawning behavior induced by apomorphine (in words) ([1]; rats, s.c.)	Induction of catalepsy (side effect) [2]	Induction of yawning behavior (thought to be induced by a reduction in the amount of dopamine) [3]	Average: Mean ± S.E. (total of 7 scores), climbing behavior ([4]; 0.01 mg/kg s.c.)	Average: Mean ± S.E. (total of 7 scores), climbing behavior ([4]; 0.1 mg/kg s.c.)	Average: Mean ± S.E. (total of 7 scores), climbing behavior ([4]; 1 mg/kg s.c.)	Effect on apomorphine-induced climbing behavior (in words) ([4]; mice, s.c.)	Acceleration of the metabolism of dopamine in the brain of rats (in words) [5]	ED50, inhibition of FR20 responding [6]	ED50, inhibition of methylphenidate-induced hyperlocomotion [7]	Average: Mean ± S.E. (total of 7 scores), climbing behavior ([8]; 0.01 mg/kg s.c.)	Average: Mean ± S.E. (total of 7 scores), climbing behavior ([8]; 0.1 mg/kg s.c.)	Average: Mean ± S.E. (total of 7 scores), climbing behavior ([8]; 1.0 mg/kg s.c.)	Inhibitory effect on methylphenidate-induced hyperlocomotion (in words) [7]	Average: Mean ± S.E. (total of 7 scores), climbing behavior ([8]; 0.3 mg/kg s.c.)
CSCC[C@H](NC(=O)[C@H](Cc1ccc(OS(=O)(=O)O)cc1)NC(=O)[C@@H](N)CC(=O)O)C(=O)NCC(=O)N[C@@H](Cc1c[nH]c2ccccc12)C(=O)N[C@@H](CCSC)C(=O)N[C@@H](CC(=O)O)C(=O)N[C@@H](Cc1ccccc1)C(N)=O [CCK-8, Asp--Tyr(SO3 H)--Met--Gly--Trp--Met--Asp--Phe--NH2, reference compound]	4.9	not inhibited	induces catalepsy	induces no yawning behavior whatsoever	10.2 ± 0.7	11.4 ± 0.6	9.5 ± 1.0	little or no influence on the climbing behavior; also recorded: does not inhibit this behavior	does not accelerate the metabolism of dopamine	0.0221 mg/kg	0.5125 mg/kg	10.2 ± 0.7	11.4 ± 0.6	9.5 ± 1.0	–	–
CSCC[C@H](NC(=O)[C@H](Cc1ccc(OS(=O)(=O)O)cc1)NC(=O)CCC(=O)O)C(=O)NCC(=O)N[C@@H](Cc1c[nH]c2ccccc12)C(=O)N[C@@H](CCSC)C(=O)N[C@@H](CC(=O)O)C(=O)N[C@@H](Cc1ccccc1)C(N)=O [Peptide D, Suc--Tyr(SO3 H)--Met--Gly--Trp--Met--Asp--Phe--NH2] (HELM PEPTIDE1{[O=C(O)CCC(=O)[*:2]].[O=C([C@H](Cc1ccc(OS(=O)(=O)O)cc1)N[*:1])[*:2]].M.G.W.M.D.F.[am]}$$$$V2.0)	–	–	–	–	–	–	–	–	–	0.0102 mg/kg	0.0345 mg/kg	–	7.0 ± 0.3	4.5 ± 1.0	especially high inhibitory effect	5.9 ± 0.9
CSCC[C@H](NC(=O)[C@H](Cc1ccc(OS(=O)(=O)O)cc1)NC(=O)CCCC(=O)O)C(=O)NCC(=O)N[C@@H](Cc1c[nH]c2ccccc12)C(=O)N[C@@H](CCSC)C(=O)N[C@@H](CC(=O)O)C(=O)N[C@@H](Cc1ccccc1)C(N)=O [Peptide E, Glt--Tyr(SO3 H)--Met--Gly--Trp--Met--Asp--Phe--NH2] (HELM PEPTIDE1{[O=C(O)CCCC(=O)[*:2]].[O=C([C@H](Cc1ccc(OS(=O)(=O)O)cc1)N[*:1])[*:2]].M.G.W.M.D.F.[am]}$$$$V2.0)	–	–	–	–	–	–	–	–	–	0.004 mg/kg	0.0879 mg/kg	–	9.1 ± 0.9	6.5 ± 0.7	especially high inhibitory effect	7.9 ± 0.9
